Results: article PMC6943751 (The Journal of infectious diseases, 2014)

Key:
[1] = biological target: Neuraminidase (NA) of A/Taiwan/1/2013(H7N9) NA-WT (Influenza A virus, UniProt A0A024E3Q2); type: biochemical; details: read-out: IC50, nM ± SD
[2] = biological target: Neuraminidase (NA) of A/Washington/01/2007, NA-WT (Influenza A virus, UniProt A7UPN3); type: biochemical; details: read-out: IC50, nM ± SD

## CCC(CC)[C@H](NC(C)=O)[C@@H]1[C@H](O)[C@@H](C(=O)O)C[C@H]1N=C(N)N [Peramivir, peramivir]
[1]
  IC50: 0.08 ± 0.02 nM
[2]
  IC50: 0.23 ± 0.03 nM
